Source: EP0422215B1, “ANTIBACTERIAL AND AN[…]” (THE ROCKEFELLER UNIVERSITY, priority 1989, dated 1990)
Where no end group is shown, it is not given here.

What was measured:
Type in all cases: cell-based
S. pyogenes = conditions: thin agarose plates, overnight incubation at 30°C
Procedure: (§1) The products of the invention were tested for activity against a variety of test organisms selected to represent a number of different types of pathogens some of them known to be particularly virulent by the inhibition zone assay of Hoffmann et al. (1981) Insect Biochem. 11 537-548. Thin agar or agarose plates (8.5 cm diameter) were prepared with 6 ml of rich medium containing 100 µg/ml of streptomycin and 2 x 10^5 viable cells of a test organism resistant to streptomycin. Wells of […] were punched in the plates and 3 µl of serially diluted samples were placed in the wells. The diameters of the zones of inhibition around the wells were measured after overnight incubation at 30° or 37°C. For each peptide the squares of the zone diameters were plotted against the logarithm of the concentration, and from the slopes and intercepts the lethal concentrations were calculated as described by Hultmark (1983) EMBO J. 2, 571-76 or Hultmark et al. (1982) Eur. J. Biochem. 127 207-217.
(§2) Novel peptides CA(1-8)M(1-18), CA(1-9)M(1-17), CB(1-13)M(1-13), CA(1-17)M(1-9), CA(1-18)M(1-8), M(1-13)CA(1-22) and M(1-13)CA(1-13) were prepared as described above (see Examples 1-6). These novel peptides and CA, CB, and M were tested for activity against a variety of organisms selected to represent a number of different types of pathogens, some of them known to be particularly virulent, by the inhibition zone assay of Hoffmann et al. (1981), Insect Biochem. 11 537-48. As in Examples 1-6, thin agarose plates were prepared with the respective organisms. The diameters of the zones of inhibition were measured after overnight incubation at 30°C. The lethal concentrations were determined as described above (see Examples 1-6; Hultmark et al. articles cited thereat).

S. aureus Cowan I = conditions: thin agarose plates, 30°C, * indicates flat concentration dependence
Procedure: as §1, §2

E. coli D21 = conditions: thin agarose plates, overnight incubation at 30°C
Procedure: as §1, §2

B. subtilis Bsll = conditions: overnight incubation at 30°C; for LETHAL CONCENTRATION Bsll + ME: B. subtilis, plates prepared with medium E; for LETHAL CONCENTRATION Bsll: Bsll = B. subtilis, thin agarose plates
Procedure: as §1, §2

Sheep Red Cells = experiment: lysis of sheep red blood cells (lysis assay or inhibition zone plate assay with SRC); conditions: for LETHAL CONCENTRATION SRC: SRC = Sheep Red Cells, ? indicates turbid zone (melittin gives clear zone); for concentration lytic to sheep red blood cells: stated in running text
Procedure: These values were obtained by either the lysis assay normally used for melittin or by an adaptation of the antibacterial inhibition zone assay of the above-cited Hultmark et al. articles to plates with sheep red cells (SRC). With respect to the latter, sterile agarose plates contained 6 ml of medium with 1% agarose, 0.9% NaCl and 10% SRC suspended in Alsevers solution. A dilution series of peptide was applied in 3mm wells each loaded with 3 µl of the respective samples. The plates were incubated at 30°C for 24 h, the zones were recorded and LC values calculated as described in the Hultmark et al. articles. Clear zones were recorded after a few hours of incubation and the use of such data gave an LC value of the same order as readings after 24 h. This plate assay is faster and more convenient than the lysis assay normally used for melittin.

P. aeruginosa OT97 = conditions: thin agarose plates, overnight incubation at 30°C
Procedure: as §1, §2

Row | Compound | LETHAL CONCENTRATION Strep (S. pyogenes) [µM] | LETHAL CONCENTRATION Staph (S. aureus Cowan I) | LETHAL CONCENTRATION D21 (E. coli D21) [µM] | LETHAL CONCENTRATION Bsll + ME (B. subtilis Bsll) [µM] | LETHAL CONCENTRATION SRC (Sheep Red Cells) | LETHAL CONCENTRATION OT97 (P. aeruginosa OT97) [µM] | LETHAL CONCENTRATION Bsll (B. subtilis Bsll) [µM] | concentration lytic to sheep red blood cells (Sheep Red Cells) [µM] | concentration lytic to sheep red blood cells (Sheep Red Cells; listed as CA(1-13) M(1-13)) | fold improvement over natural melittin in lysis of red cells (Sheep Red Cells; compared with melittin)
1 | CC[C@H](C)[C@H](NC(=O)CN)C(=O)NCC(=O)N[C@@H](C)C(=O)N[C@H](C(=O)N[C@@H](CC(C)C)C(=O)N[C@@H](CCCCN)C(=O)N[C@H](C(=O)N[C@@H](CC(C)C)C(=O)N[C@H](C(=O)N[C@H](C(=O)NCC(=O)N[C@@H](CC(C)C)C(=O)N[C@@H](CCCCN)C(=O)N[C@@H](Cc1c[nH]c2ccccc12)C(=O)N[C@@H](CCCCN)C(=O)N[C@@H](CC(C)C)C(=O)N[C@@H](Cc1ccccc1)C(=O)N[C@@H](CCCCN)C(=O)N[C@@H](CCCCN)C(=O)N[C@H](C(=O)N[C@@H](CCC(=O)O)C(=O)N[C@@H](CCCCN)C(=O)N[C@H](C(=O)NCC(=O)N[C@@H](CCC(N)=O)C(=O)N[C@@H](CC(N)=O)C(=O)N[C@H](C(=O)N[C@@H](CCCNC(=N)N)C(=O)N[C@@H](CC(=O)O)C(=O)NCC(=O)N[C@H](C(=O)N[C@H](C(=O)N[C@@H](CCCCN)C(=O)N[C@@H](C)C(N)=O)[C@@H](C)CC)[C@@H](C)CC)[C@@H](C)CC)C(C)C)[C@@H](C)CC)[C@@H](C)O)[C@@H](C)O)C(C)C)C(C)C [M(1-13)CA(1-22)] | 1 | 5* µM | 0.7 | 0.2 | 40? µM | – | – | – | – | –
2 | KWKLFKKIEKVGQNIRDGGIGAVLKV-NH2 [CA(1-18)M(1-8)] | 3 | >600 µM | 1 | 20 | >600 µM | 15 | 4 | – | – | –
3 | KWKLFKKIEKVGQNIRDGIGAVLKVL-NH2 [CA(1-17)M(1-9)] | 0.2 | 4 µM | 0.5 | 1 | >600 µM | 5 | 0.5 | – | – | –
4 | CC[C@H](C)[C@H](NC(=O)CN)C(=O)NCC(=O)N[C@@H](C)C(=O)N[C@H](C(=O)N[C@@H](CC(C)C)C(=O)N[C@@H](CCCCN)C(=O)N[C@H](C(=O)N[C@@H](CC(C)C)C(=O)N[C@H](C(=O)N[C@H](C(=O)NCC(=O)N[C@@H](CC(C)C)C(=O)N1CCC[C@H]1C(=O)N[C@@H](C)C(=O)N[C@@H](CC(C)C)C(=O)N[C@H](C(=O)N[C@@H](CO)C(=O)N[C@@H](Cc1c[nH]c2ccccc12)C(=O)N[C@H](C(=O)N[C@@H](CCCCN)C(=O)N[C@@H](CCCNC(=N)N)C(=O)N[C@@H](CCCCN)C(=O)N[C@@H](CCCNC(=N)N)C(=O)N[C@@H](CCC(N)=O)C(=O)N[C@@H](CCC(N)=O)C(N)=O)[C@@H](C)CC)[C@@H](C)CC)[C@@H](C)O)[C@@H](C)O)C(C)C)C(C)C [M(1-26), reference compound] | 0.5 | 0.2 µM | 0.8 | 0.3 | 4 to 8 µM | 3 | 0.2 | – | – | –
5 | CC[C@H](C)[C@H](NC(=O)CNC(=O)[C@@H](NC(=O)[C@H](CCCCN)NC(=O)[C@H](CCCCN)NC(=O)[C@H](Cc1ccccc1)NC(=O)[C@H](CC(C)C)NC(=O)[C@H](CCCCN)NC(=O)[C@H](Cc1c[nH]c2ccccc12)NC(=O)[C@@H](N)CCCCN)[C@@H](C)CC)C(=O)NCC(=O)N[C@@H](C)C(=O)N[C@H](C(=O)N[C@@H](CC(C)C)C(=O)N[C@@H](CCCCN)C(=O)N[C@H](C(=O)N[C@@H](CC(C)C)C(=O)N[C@H](C(=O)N[C@H](C(=O)NCC(=O)N[C@@H](CC(C)C)C(=O)N1CCC[C@H]1C(=O)N[C@@H](C)C(=O)N[C@@H](CC(C)C)C(=O)N[C@H](C(=O)N[C@@H](CO)C(N)=O)[C@@H](C)CC)[C@@H](C)O)[C@@H](C)O)C(C)C)C(C)C [CA(1-8)M(1-18)] | 2 | 1 µM | 0.3 | 0.5 | >600 µM | 0.7 | 0.4 | – | – | –
6 | CC[C@H](C)[C@H](NC(=O)CNC(=O)[C@@H]1CCCN1C(=O)CNC(=O)[C@H](C)NC(=O)[C@H](CCCCN)NC(=O)[C@@H](NC(=O)[C@@H](NC(=O)CNC(=O)[C@H](CC(=O)O)NC(=O)[C@H](CCCNC(=N)N)NC(=O)[C@@H](NC(=O)[C@H](CC(N)=O)NC(=O)[C@H](CCC(N)=O)NC(=O)CNC(=O)[C@@H](NC(=O)[C@H](CCCCN)NC(=O)[C@H](CCC(=O)O)NC(=O)[C@@H](NC(=O)[C@H](CCCCN)NC(=O)[C@H](CCCCN)NC(=O)[C@H](Cc1ccccc1)NC(=O)[C@H](CC(C)C)NC(=O)[C@H](CCCCN)NC(=O)[C@H](Cc1c[nH]c2ccccc12)NC(=O)[C@@H](N)CCCCN)[C@@H](C)CC)C(C)C)[C@@H](C)CC)[C@@H](C)CC)[C@@H](C)CC)C(=O)NCC(=O)N[C@@H](C)C(=O)N[C@H](C(=O)N[C@@H](CC(C)C)C(=O)N[C@@H](CCCCN)C(=O)N[C@H](C(=O)N[C@@H](CC(C)C)C(=O)N[C@H](C(=O)N[C@H](C(=O)NCC(=O)N[C@@H](CC(C)C)C(N)=O)[C@@H](C)O)[C@@H](C)O)C(C)C)C(C)C [CA(1-24)M(1-13)] | – | – | – | – | – | – | – | > 100 | – | –
7 | CC[C@H](C)[C@H](NC(=O)CN)C(=O)NCC(=O)N[C@@H](C)C(=O)N[C@H](C(=O)N[C@@H](CC(C)C)C(=O)N[C@@H](CCCCN)C(=O)N[C@H](C(=O)N[C@@H](CC(C)C)C(=O)N[C@H](C(=O)N[C@H](C(=O)NCC(=O)N[C@@H](CC(C)C)C(=O)N[C@@H](CCCCN)C(=O)N[C@@H](Cc1c[nH]c2ccccc12)C(=O)N[C@@H](CCCCN)C(=O)N[C@@H](CC(C)C)C(=O)N[C@@H](Cc1ccccc1)C(=O)N[C@@H](CCCCN)C(=O)N[C@@H](CCCCN)C(=O)N[C@H](C(=O)N[C@@H](CCC(=O)O)C(=O)N[C@@H](CCCCN)C(=O)N[C@H](C(=O)NCC(=O)N[C@@H](CCC(N)=O)C(N)=O)C(C)C)[C@@H](C)CC)[C@@H](C)O)[C@@H](C)O)C(C)C)C(C)C [M(1-13)CA(1-13)] | 1 | 5* µM | 1 | 0.1 | 80? µM | 5 | 0.3 | – | – | –
8 | CC[C@H](C)[C@H](NC(=O)CNC(=O)[C@H](CCC(N)=O)NC(=O)CNC(=O)[C@@H](NC(=O)[C@H](CCCCN)NC(=O)[C@H](CCC(=O)O)NC(=O)[C@@H](NC(=O)[C@H](CCCCN)NC(=O)[C@H](CCCCN)NC(=O)[C@H](Cc1ccccc1)NC(=O)[C@H](CC(C)C)NC(=O)[C@H](CCCCN)NC(=O)[C@H](Cc1c[nH]c2ccccc12)NC(=O)[C@@H](N)CCCCN)[C@@H](C)CC)C(C)C)C(=O)NCC(=O)N[C@@H](C)C(=O)N[C@H](C(=O)N[C@@H](CC(C)C)C(=O)N[C@@H](CCCCN)C(=O)N[C@H](C(=O)N[C@@H](CC(C)C)C(=O)N[C@H](C(=O)N[C@H](C(=O)NCC(=O)N[C@@H](CC(C)C)C(N)=O)[C@@H](C)O)[C@@H](C)O)C(C)C)C(C)C [CA(1-13)M(1-13)] | – | – | – | – | – | – | – | > 100 | greater than 200 µM | –
9 | CC[C@H](C)[C@H](NC(=O)CNC(=O)[C@H](CCC(N)=O)NC(=O)[C@H](CCC(N)=O)NC(=O)[C@H](CCCNC(=N)N)NC(=O)[C@H](CCCCN)NC(=O)[C@H](CCCNC(=N)N)NC(=O)[C@H](CCCCN)NC(=O)[C@@H](NC(=O)[C@H](Cc1c[nH]c2ccccc12)NC(=O)[C@H](CO)NC(=O)[C@@H](NC(=O)[C@@H](N)CC(C)C)[C@@H](C)CC)[C@@H](C)CC)C(=O)NCC(=O)N[C@@H](C)C(=O)N[C@H](C(=O)N[C@@H](CC(C)C)C(=O)N[C@@H](CCCCN)C(=O)N[C@H](C(=O)N[C@@H](CC(C)C)C(=O)N[C@H](C(=O)N[C@H](C(=O)NCC(=O)N[C@@H](CC(C)C)C(N)=O)[C@@H](C)O)[C@@H](C)O)C(C)C)C(C)C [M(16-26)M(1-13)] | – | – | – | – | – | – | – | > 240 | – | 40-60 fold
